Measured values reported in patent US20220046923A1, “HERBICIDAL CINNOLINIUM COMPOUNDS” (SYNGENTA CROP PROTECTION AG, priority 2018, published 2022).

Experiments:
Experiment in all cases: Post-emergence efficacy, glasshouse spray test
Format in all cases: in vivo
[1] = test system: Amaranthus palmeri (AMAPA); conditions: Amaranthus palmeri, post-emergence, 312 h; application rate 1000 g/Ha; evaluated after 13 days; read-out: Control of weed species AMAPA after post-emergence application (100=total damage to plant; 0=no damage to plant)
Description: (§1) Seeds of a variety of test species were sown in standard soil in pots. After cultivation for 14 days (post-emergence) under controlled conditions in a glasshouse (at 24/16° C., day/night; 14 hours light; 65% humidity), the plants were sprayed with an aqueous spray solution derived from the dissolution of the technical active ingredient formula (I) in a small amount of acetone and a special solvent and emulsifier mixture referred to as IF50 (11.12% Emulsogen EL360 TM+44.44% N-methylpyrrolidone+44.44% Dowanol DPM glycol ether), to create a 50 g/l solution which was then diluted to required concentration using 0.25% or 1% Empicol ESC70 (Sodium lauryl ether sulphate)+1% ammonium sulphate as diluent. The test plants were then grown in a glasshouse under controlled conditions (at 24/16° C., day/night; 14 hours light; 65% humidity) and watered twice daily. After 13 days the test was evaluated (100=total damage to plant; 0=no damage to plant).
(§2) Ipomoea hederacea (IPOHE), Euphorbia heterophylla (EPHHL), Chenopodium album (CHEAL), Amaranthus palmeri (AMAPA), Lolium perenne (LOLPE), Digitaria sanguinalis (DIGSA), Eleusine indica (ELEIN), Echinochloa crus-galli (ECHCG), Setaria faberi (SETFA)

[2] = test system: Chenopodium album (CHEAL); conditions: Chenopodium album, post-emergence, 312 h, evaluated after 13 days, read-out: Control of weed species CHEAL after post-emergence application (100=total damage to plant; 0=no damage to plant); for pest or weed control at 1000 g/ha: application rate 1000 g/Ha; for pest or weed control at 500 g/ha: application rate 500 g/Ha
Description: as §1, §2

[3] = test system: Digitaria sanguinalis (DIGSA); conditions: Digitaria sanguinalis, post-emergence, 312 h, evaluated after 13 days, read-out: Control of weed species DIGSA after post-emergence application (100=total damage to plant; 0=no damage to plant); for pest or weed control at 1000 g/ha: application rate 1000 g/Ha; for pest or weed control at 500 g/ha: application rate 500 g/Ha
Description: as §1, §2

[4] = test system: Echinochloa crus-galli (ECHCG); conditions: Echinochloa crus-galli, post-emergence, 312 h, evaluated after 13 days, read-out: Control of weed species ECHCG after post-emergence application (100=total damage to plant; 0=no damage to plant); for pest or weed control at 1000 g/ha: application rate 1000 g/Ha; for pest or weed control at 500 g/ha: application rate 500 g/Ha
Description: as §1, §2

Eleusine indica (ELEIN) = conditions: Eleusine indica, post-emergence, 312 h, evaluated after 13 days, read-out: Control of weed species ELEIN after post-emergence application (100=total damage to plant; 0=no damage to plant); for pest or weed control at 1000 g/ha: application rate 1000 g/Ha; for pest or weed control at 500 g/ha: application rate 500 g/Ha
Description: as §1, §2

[5] = test system: Euphorbia heterophylla (EPHHL); conditions: Euphorbia heterophylla, post-emergence, 312 h, evaluated after 13 days, read-out: Control of weed species EPHHL after post-emergence application (100=total damage to plant; 0=no damage to plant); for pest or weed control at 1000 g/ha: application rate 1000 g/Ha; for pest or weed control at 500 g/ha: application rate 500 g/Ha
Description: as §1, §2

[6] = test system: Ipomoea hederacea (IPOHE); conditions: Ipomoea hederacea, post-emergence, 312 h, evaluated after 13 days, read-out: Control of weed species IPOHE after post-emergence application (100=total damage to plant; 0=no damage to plant); for pest or weed control at 1000 g/ha: application rate 1000 g/Ha; for pest or weed control at 500 g/ha: application rate 500 g/Ha
Description: as §1, §2

Lolium perenne (LOLPE) = conditions: Lolium perenne, post-emergence, 312 h, evaluated after 13 days, read-out: Control of weed species LOLPE after post-emergence application (100=total damage to plant; 0=no damage to plant); for pest or weed control at 1000 g/ha: application rate 1000 g/Ha; for pest or weed control at 500 g/ha: application rate 500 g/Ha
Description: as §1, §2

Setaria faberi (SETFA) = conditions: Setaria faberi, post-emergence, 312 h, evaluated after 13 days, read-out: Control of weed species SETFA after post-emergence application (100=total damage to plant; 0=no damage to plant); for pest or weed control at 1000 g/ha: application rate 1000 g/Ha; for pest or weed control at 500 g/ha: application rate 500 g/Ha
Description: as §1, §2

| Structure (SMILES) | pest or weed control at 1000 g/ha [2] [%] | pest or weed control at 1000 g/ha [3] [%] | pest or weed control at 1000 g/ha [4] [%] | pest or weed control at 1000 g/ha (Eleusine indica (ELEIN)) [%] | pest or weed control at 1000 g/ha [5] [%] | pest or weed control at 1000 g/ha [6] [%] | pest or weed control at 1000 g/ha (Lolium perenne (LOLPE)) [%] | pest or weed control at 1000 g/ha (Setaria faberi (SETFA)) [%] | pest or weed control at 500 g/ha [2] [%] | pest or weed control at 500 g/ha [3] [%] | pest or weed control at 500 g/ha [4] [%] | pest or weed control at 500 g/ha (Eleusine indica (ELEIN)) [%] | pest or weed control at 500 g/ha [5] [%] | pest or weed control at 500 g/ha [6] [%] | pest or weed control at 500 g/ha (Lolium perenne (LOLPE)) [%] | pest or weed control at 500 g/ha (Setaria faberi (SETFA)) [%] | other results |
| --- | --- | --- | --- | --- | --- | --- | --- | --- | --- | --- | --- | --- | --- | --- | --- | --- | --- |
| COC(=O)C[n+]1ccc2ccccc2n1 [Compound A1, methyl 2-cinnolin-2-ium-2-ylacetate bromide] | 60 | 70 | 70 | 100 | 90 | 50 | 40 | 60 | – | – | – | – | – | – | – | – | pest or weed control at 1000 g/ha [1]: 100% |
| Cc1ccc2n[n+](CCS(=O)(=O)[O-])cc(C)c2c1 [Compound A33] | 10 | 40 | 50 | 30 | 60 | 30 | 0 | 40 | – | – | – | – | – | – | – | – | – |
| O=S(=O)([O-])CC[n+]1ccc2cc(Br)ccc2n1 [Compound A34] | 20 | 40 | 40 | 30 | 40 | 20 | 10 | 20 | – | – | – | – | – | – | – | – | – |
| Cc1c[n+](CCS(=O)(=O)[O-])nc2c(C)cccc12 [Compound A35] | 0 | 30 | 20 | 20 | 30 | 20 | 10 | 0 | – | – | – | – | – | – | – | – | – |
| Cc1cccc2cc[n+](CCS(=O)(=O)[O-])nc12 [Compound A36] | – | 80 | 70 | 90 | 30 | 30 | 20 | 40 | – | – | – | – | – | – | – | – | – |
| COC(=O)c1cccc(C[n+]2ccc3ccccc3n2)c1 [Compound A90] | – | 10 | 10 | 20 | 30 | 10 | 0 | 0 | – | – | – | – | – | – | – | – | pest or weed control at 1000 g/ha [1]: 20% |
| O=C(O)c1cccc(C[n+]2ccc3ccccc3n2)c1 [Compound A91] | 20 | 20 | 40 | 20 | 40 | 10 | 10 | 20 | – | – | – | – | – | – | – | – | – |
| O=S(=O)(O)c1ccc(C[n+]2ccc3ccccc3n2)cc1 [Compound A92] | 0 | 20 | 30 | 30 | 50 | 40 | 10 | 10 | – | – | – | – | – | – | – | – | – |
| CN(C)C(=O)c1ccc2n[n+](CCS(=O)(=O)[O-])ccc2c1 [Compound A101] | – | – | – | – | – | – | – | – | 60 | 70 | 60 | 80 | 70 | 40 | 20 | 70 | – |
| CN(C)C(=O)c1cccc2cc[n+](CCS(=O)(=O)[O-])nc12 [Compound A102, 2-[8-(dimethylcarbamoyl)cinnolin-2-ium-2-yl]ethanesulfonate] | – | – | – | – | – | – | – | – | 100 | 80 | 70 | 100 | 60 | 70 | 30 | 90 | – |
| CC(=O)Nc1ccc2n[n+](CCS(=O)(=O)[O-])ccc2c1 [Compound A104] | – | – | – | – | – | – | – | – | – | – | – | – | – | – | – | – | pest or weed control at 125 g/ha ([2]; application rate 125 g/Ha): 30%; pest or weed control at 125 g/ha ([3]; application rate 125 g/Ha): 60%; pest or weed control at 125 g/ha ([4]; application rate 125 g/Ha): 60%; pest or weed control at 125 g/ha (Eleusine indica (ELEIN); application rate 125 g/Ha): 80%; pest or weed control at 125 g/ha ([5]; application rate 125 g/Ha): 50%; pest or weed control at 125 g/ha ([6]; application rate 125 g/Ha): 10%; pest or weed control at 125 g/ha (Lolium perenne (LOLPE); application rate 125 g/Ha): 20%; pest or weed control at 125 g/ha (Setaria faberi (SETFA); application rate 125 g/Ha): 70% |
| CC(=O)Nc1ccc2cc[n+](CCS(=O)(=O)[O-])nc2c1 [Compound A105] | – | – | – | – | – | – | – | – | 70 | 60 | 50 | 80 | 30 | 20 | 20 | 70 | – |
| CN(C)C(=O)c1ccc2cc[n+](CCS(=O)(=O)[O-])nc2c1 [Compound A106] | – | – | – | – | – | – | – | – | 80 | 70 | 80 | 100 | 30 | 20 | 30 | 100 | – |
